Data reported in the supplement of paper PMC11208160.

Assay: recombinant barcode read abundance after kanamycin selection (control-corrected) (log10(CPM+1)); higher = more efficient recombination; sequences stand for … in AGTGCAGAGAAAATCGGCCAGTTTTCTCTGCCTGCAGTCCGCATGCCGT…AGATTTATGCAGCGGACTGCCTTTCTCCCAAAGTGATAAACCGGACAGTATCATGGACCGGTTTTCCCGGTAATCCGTATTTGCAAGGTTGGTTTCACT; site = the 11-nt target
In short: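 Duplicate cultures were plated either on chloramphenicol/ampicillin LB agar, serving as control, or on chloramphenicol/ampicillin/kanamycin with 0.1 mM IPTG. These came from a pooled E. coli library co-electroporated with a donor plasmid, each member pairing a target with an IS621 bridge RNA target-binding loop. Recombination efficiency equals averaged, control-corrected counts per million of recombinant-junction barcodes. It is listed as log10(CPM+1).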
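Also: IS621 recombinase and bridge RNA in Escherichia coli cells.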

Sequence | recombinant barcode read abundance (log10)
TCGGATACTTGGGTTCTAACCTGTTGCCA (site TCGGATACTTG) | 0.456
TCGGCCTCTTGGGTTCTAACCTGTTGCTA (site CGTCTAGCTAT) | 0.054
TCGGCCTCTTGGGTTCTAACCTGTTGCTA (site TCGGCCTCTTA) | 0.877
TCGGCGACTTGGGTTCTAACCTGTTGCCT (site TCAGCGACTAG) | 0.11
TCGGCGACTTGGGTTCTAACCTGTTGCCT (site TCCGCGACTAG) | 0.0866
TCGGCGACTTGGGTTCTAACCTGTTGCCT (site TCGGCGACTAG) | 0.0143
TCGGCGACTTGGGTTCTAACCTGTTGCCT (site TCTGCGACTAG) | 0.291
TCGGGAACTTGGGTTCTAACCTGTTGCCT (site TCGCGAACTAG) | 0.502
TCGGGAACTTGGGTTCTAACCTGTTGCCT (site TCGGGAACTAG) | 0.34
TCGGGATCTTGGGTTCTAACCTGTTGCCT (site ACGGGATCTAG) | 0.365
TCGGGATCTTGGGTTCTAACCTGTTGCCT (site CCGGGATCTAG) | 0.184
TCGGGATCTTGGGTTCTAACCTGTTGCCT (site GCGGGATCTAG) | 0.0188
TCGGGATCTTGGGTTCTAACCTGTTGCCT (site TCGGGATCTAG) | 1.05
TCGGTGACTTGGGTTCTAACCTGTTGCCT (site ACGGTGACTAG) | 0.658
TCGGTGACTTGGGTTCTAACCTGTTGCCT (site CCGGTGACTAG) | 0.0364
TCGGTGACTTGGGTTCTAACCTGTTGCCT (site GCGGTGACTAG) | 0.0708
TCGGTGACTTGGGTTCTAACCTGTTGCCT (site TCGGTGACTAG) | 0.87
TCGTACCCTTGGGTTCTAACCTGTTGCGA (site TCGAACCCTTC) | 0.256
TCGTACCCTTGGGTTCTAACCTGTTGCGA (site TCGCACCCTTC) | 0.0875
TCGTACCCTTGGGTTCTAACCTGTTGCGA (site TCGGACCCTTC) | 0.0548
TCGTACCCTTGGGTTCTAACCTGTTGCGA (site TCGTACCCTTC) | 0.617
TCGTCTCCTTGGGTTCTAACCTGTTGCTT (site TCGTCTCCTAA) | 0

Sequence | recombinant barcode read abundance (log10)
TCGTCTCCTTGGGTTCTAACCTGTTGCTT (site TTATCTCCTAA) | 0.386
TCGTGCACTTGGGTTCTAACCTGTTGCCT (site TCGTGCACTAG) | 0.215
TCGTGCACTTGGGTTCTAACCTGTTGCCT (site TCGTGCCCTAG) | 0.448
TCGTGCACTTGGGTTCTAACCTGTTGCCT (site TCGTGCGCTAG) | 0.0852
TCGTGCACTTGGGTTCTAACCTGTTGCCT (site TCGTGCTCTAG) | 0.178
TCGTGCCCTTGGGTTCTAACCTGTTGCTT (site TCGTGCCCTAA) | 0.0384
TCGTGCCCTTGGGTTCTAACCTGTTGCTT (site TCGTGCCCTCA) | 1.5
TCGTGCTCTTGGGTTCTAACCTGTTGCCT (site TCGTGCACTAG) | 0.0667
TCGTGCTCTTGGGTTCTAACCTGTTGCCT (site TCGTGCCCTAG) | 0.282
TCGTGCTCTTGGGTTCTAACCTGTTGCCT (site TCGTGCGCTAG) | 0.193
TCGTGCTCTTGGGTTCTAACCTGTTGCCT (site TCGTGCTCTAG) | 0.0894
TCTAACCCTTGGGTTCTAACCTGTTGCAT (site TCTAAACCTAT) | 0.0654
TCTAACCCTTGGGTTCTAACCTGTTGCAT (site TCTAACCCTAT) | 0.251
TCTAACCCTTGGGTTCTAACCTGTTGCAT (site TCTAAGCCTAT) | 0.028
TCTAACCCTTGGGTTCTAACCTGTTGCAT (site TCTAATCCTAT) | 0.0655
TCTAATCCTTGGGTTCTAACCTGTTGCAT (site TCTAAACCTAT) | 0.11
TCTAATCCTTGGGTTCTAACCTGTTGCAT (site TCTAACCCTAT) | 0.0519
TCTAATCCTTGGGTTCTAACCTGTTGCAT (site TCTAAGCCTAT) | 0.0992
TCTAATCCTTGGGTTCTAACCTGTTGCAT (site TCTAATCCTAT) | 0.025
TCTAATTCTTGGGTTCTAACCTGTTGCAT (site TCTAATTCTAT) | 0.0913
TCTAATTCTTGGGTTCTAACCTGTTGCAT (site TCTGACTCTAT) | 0.186
TCTAATTCTTGGGTTCTAACCTGTTGCGT (site TCTAATTCTAC) | 0.095

Sequence | recombinant barcode read abundance (log10)
TCTAATTCTTGGGTTCTAACCTGTTGCGT (site TCTCATTCTAC) | 0.162
TCTAATTCTTGGGTTCTAACCTGTTGCGT (site TCTGATTCTAC) | 0.899
TCTAATTCTTGGGTTCTAACCTGTTGCGT (site TCTTATTCTAC) | 0.047
TCTAGAGCTTGGGTTCTAACCTGTTGCCT (site TCTAGAACTAG) | 0.0712
TCTAGAGCTTGGGTTCTAACCTGTTGCCT (site TCTAGACCTAG) | 0.228
TCTAGAGCTTGGGTTCTAACCTGTTGCCT (site TCTAGAGCTAG) | 0.0183
TCTAGAGCTTGGGTTCTAACCTGTTGCCT (site TCTAGATCTAG) | 0.339
TCTAGGACTTGGGTTCTAACCTGTTGCAA (site CGACAATCTAA) | 0.29
TCTAGGACTTGGGTTCTAACCTGTTGCAA (site TCTAGGACTTT) | 0.52
TCTCACGCTTGGGTTCTAACCTGTTGCCT (site TCGCACGCTAG) | 0.0772
TCTCACGCTTGGGTTCTAACCTGTTGCCT (site TCTCACGCTAG) | 0.964
TCTCACTCTTGGGTTCTAACCTGTTGCCT (site TCACACTCTAG) | 0.0111
TCTCACTCTTGGGTTCTAACCTGTTGCCT (site TCCCACTCTAG) | 0.504
TCTCACTCTTGGGTTCTAACCTGTTGCCT (site TCGCACTCTAG) | 0.0924
TCTCACTCTTGGGTTCTAACCTGTTGCCT (site TCTCACTCTAG) | 1.54
TCTCATGCTTGGGTTCTAACCTGTTGCAT (site GACGGCACTCC) | 0.0135
TCTCATGCTTGGGTTCTAACCTGTTGCAT (site TCTCATGCTAT) | 0.224
TCTCGGCCTTGGGTTCTAACCTGTTGCCT (site TCTCAGCCTAG) | 0.0701
TCTCGGCCTTGGGTTCTAACCTGTTGCCT (site TCTCCGCCTAG) | 0.394
TCTCGGCCTTGGGTTCTAACCTGTTGCCT (site TCTCGGCCTAG) | 0.202
TCTCGGCCTTGGGTTCTAACCTGTTGCCT (site TCTCTGCCTAG) | 0.0561
TCTGACTCTTGGGTTCTAACCTGTTGCAT (site TCTAATTCTAT) | 0.0501
